For series [1], the system named is chloroquine-sensitive D6 strain of P. falciparum. Description: In vitro antiplasmodial assay, (G-3H) hypoxanthine incorporation, D6 strain. It counts as cell-based. Particulars: Plasmodium falciparum. On the procedure: (§1) Continuous in vitro cultures of asexual erythrocytic stages of Indochinese chloroquine-resistant W2 and Sierra Leonean chloroquine-sensitive D6 strains of P. falciparum were maintained following the modified procedure described by Trager and Jensen. Drug assay was carried out following a modification of the semiautomated microdilution technique, which measures the ability of the extracts to inhibit the incorporation of (G-^3H) hypoxanthine into the malaria parasite. […] Data was transferred into the software Microsoft Excel and was expressed as the percentage of the untreated controls. The drug concentration required for 50% inhibition of (G-^3H) hypoxanthine incorporation into parasite nucleic acid was calculated with nonlinear regression analysis of the dose-response curve.

The subject of series [2] is African monkey kidney (vero) cells. Description: MTT cytotoxicity assay, vero cells. Particulars: Primates, 48 h, read-out: IC50 Vero. It counts as cell-based. From the text: (§2) This assay is based on the ability of a mitochondrial dehydrogenase enzyme from viable cells to cleave the tetrazolium rings of the pale yellow MTT and thereby form dark blue formazan crystals, which are largely impermeable to cell membranes, resulting in their accumulation within healthy cells. The amount of generated formazan is directly proportional to the number of cells. […] Cells were maintained in Eagle’s Minimum Essential Medium (MEM) containing 10% fetal bovine serum (FBS). A cell density of 20.000 cells per well in 100 μL were seeded on 96-well plates and incubated for 12 h at 37 °C and 5% CO2 to attach to the surface. […] The plates were incubated for 48 h at 37 °C and 5% CO2, followed by an addition of 10 µL MTT viability indicator reagent. The plates were incubated for additional 4 h at the same conditions. Next, all media was removed from the plates and 100 µL DMSO was added to dissolve the formazan crystals. The plates were read on a Multiskan EX Labsystems scanning multi-well spectrophotometer at 562 nm, and 620 nm as reference. The results were recorded as optical density (OD) per well at each drug concentration. The data was transferred into the software Microsoft Excel and expressed as percentage of the untreated controls.
For orientation: Tetrazolium dyes change colour on reduction, which living cells bring about.

In series [3] the test system is chloroquine-resistant W2 strain of P. falciparum. Briefly: In vitro antiplasmodial assay, (G-3H) hypoxanthine incorporation, W2 strain. It is filed as cell-based. Particulars: Plasmodium falciparum, pure compounds. On the procedure: as §1
Series [4] relates to human larynx carcinoma (HEp2) cells. Description: MTT cytotoxicity assay, HEp2 cells. Particulars: HEp-2, pure compounds, 48 h. It counts as cell-based. On the procedure: (§3) A rapid colorimetric assay was carried out using 3-(4,5-dimethylthiazol-2-yl)-2,5-diphenyltetrazolium bromide (MTT). This assay is based on the ability of a mitochondrial dehydrogenase enzyme from viable cells to cleave the tetrazolium rings of the pale yellow MTT and thereby form dark blue formazan crystals, which are largely impermeable to cell membranes, resulting in their accumulation within healthy cells. The amount of generated formazan is directly proportional to the number of cells. In this assay, the mammalian cell lines African monkey kidney (vero), mouse breast cancer (4T1) and human larynx carcinoma (HEp2) were used. Cells were maintained in Eagle’s Minimum Essential Medium (MEM) containing 10% fetal bovine serum (FBS). A cell density of 20.000 cells per well in 100 μL were seeded on 96-well plates and incubated for 12 h at 37 °C and 5% CO2 to attach to the surface. Samples of the tested extracts and isolated compounds were added to the cultured cells in rows H-B over a concentration range of 0.14 to 100 μg/mL, whereas wells 1–8 of row A served as untreated controls and wells 9–12 as blank (1% DMSO, v/v). The plates were incubated for 48 h at 37 °C and 5% CO2, followed by an addition of 10 µL MTT viability indicator reagent. The plates were incubated for additional 4 h at the same conditions. Next, all media was removed from the plates and 100 µL DMSO was added to dissolve the formazan crystals. The plates were read on a Multiskan EX Labsystems scanning multi-well spectrophotometer at 562 nm, and 620 nm as reference. The results were recorded as optical density (OD) per well at each drug concentration. The data was transferred into the software Microsoft Excel and expressed as percentage of the untreated controls. Percentage cytotoxicity (PC) as compared to the untreated controls was calculated as PC = [A − B/A] × 100, where A is the mean OD of the untreated cells and B is the mean OD at each drug concentration. The drug concentration required for 50% inhibition of cell growth was estimated using nonlinear regression analysis of the dose- response curve.

The test system of series [5] is MDA-MB-231 human breast cancer cells. Briefly: Alamar Blue cytotoxicity assay, MDA-MB-231 cells. Particulars: pure compounds, 72 h. It counts as cell-based. How it is done: Cytotoxicity tests on MDA-MB-231 cells were carried out following a previously described procedure. MDA-MB-231 human breast cancer cells were cultured in Dulbecco’s modified eagle medium (DMEM) supplemented with 10% (v/v) fetal bovine serum, 2 mM L-glutamine, 100 units/mL penicillin and 100 μg/mL streptomycin at 37 °C in humidified 5% CO2. For cytotoxicity assays, cells were seeded in 96-well plates at optimal cell density (10,000 cells per well) to ensure exponential growth for the duration of the assay. After a 24 h preincubation growth, the medium was replaced with experimental medium containing the appropriate drug concentrations or vehicle controls (0.1% or 1.0% v/v DMSO). After 72 h of incubation, cell viability was measured using Alamar Blue reagent (Invitrogen Ab, Lidingö, Sweden) according to the manufacturer’s instructions. Absorbance was measured at 570 nm with 600 nm as a reference wavelength. Results were expressed as the mean ± standard error for six replicates as a percentage of vehicle control (taken as 100%). Experiments were performed independently at least six times. Statistical analyses were performed using a two-tailed Student’s t-test. p < 0.05 was considered to be statistically significant.
In general terms: Resazurin is reduced to fluorescent resorufin, in cell work by metabolically active cells.

The test system of series [6] is vero cells. Briefly: Interaction of oleanonic acid (2) with other triterpenoids, fixed ratios, vero cell cytotoxicity. It is filed as cell-based, African monkey. Particulars: for IC50: Primates, ratio 0:1, in the absence of 2 (for 2: alone), read-out: IC50 (μg/mL), substance alone; for ∑FIC 1:1: ratio of oleanonic acid (2) versus constituent 1:1; for ∑FIC 1:3: ratio of oleanonic acid (2) versus constituent 1:3; for ∑FIC 3:1: ratio of oleanonic acid (2) versus constituent 3:1.
Source text: as §3, with “This” for “A rapid colorimetric assay was carried out using 3-(4,5-dimethylthiazol-2-yl)-2,5-diphenyltetrazolium bromide (MTT). This”, “In this assay, the mammalian cell lines African monkey kidney (vero), mouse breast cancer (4T1) and human larynx carcinoma (HEp2) were used.” left out, “Samples of the tested extracts and isolated compounds were added to the cultured cells in rows H-B over a concentration range of 0.14 to 100 μg/mL, whereas wells 1–8 of row A served as untreated controls and wells 9–12 as blank (1% DMSO, v/v).” left out, “curve. The interaction of oleanonic acid (2) with other triterpenoids was studied using the fixed concentration ratios oleanonic acid: ‘other triterpenoid’ 0:1, 1:3, 1:1, 3:1, 1:0. The vero cell cytotoxicity assay was used, as described above, to evaluate the toxicity of the mixtures. To determine whether there was synergy, additive effect or antagonism, the sum of fractional inhibition concentration (∑FIC) was calculated using the formula Ax/Ay + Bx/By = K, where Ax and Bx are the IC50s when the substances are used in combination, and Ay and By are the IC50s, when the substances are used alone. The data was scored with the scale ∑FIC < 1: synergism, 2 > ∑FIC ≥ 1: additive, 4 > ∑FIC ≥ 2: slight antagonism, ∑FIC ≥ 4: marked antagonism.” for “curve.”

The test system of series [7] is mouse breast cancer (4T1) cells. Description: MTT cytotoxicity assay, 4T1 cells. It is filed as cell-based. Particulars: 4T1, 48 h, pure compounds.
Source text: as §2

Setting [8] is: pure compounds, P. falciparum D6, mean of at least three independent experiments, read-out: IC50 D6.

The structures appear in SMILES notation. Like-named read-outs stand apart in the source and are kept apart here. Marks after values point to notes of the source that are not given here.

In the case of `CCN(CC)CCCC(C)Nc1ccnc2cc(Cl)ccc12` (centres unmarked) [Chloroquine, reference compound], the IC50 was 0.0077 µM in series [1] (D6, read-out: IC50(D6)) and 43.9 µM in series [2] (Vero).
For `CC1(C)CC[C@]2(C(=O)O)CC[C@]3(C)C(=CC[C@@H]4[C@@]5(C)CCC(=O)C(C)(C)[C@@H]5CC[C@]43C)[C@@H]2C1` [Compound 2, oleanonic acid], the IC50 in series [1] (setting [8]) was 38.8 ± 0.5 µM; in series [3], 76.7 ± 4 µM; in series [2] (vero cells, MTT), 35.8 ± 1.3 µM; in series [4], 1.4 ± 0.1 µM; in series [5] it was above 212 µM; in series [6], 14.8 µg/mL.
As for `CC1(C)CC[C@]2(C(=O)O)CC[C@]3(C)C(=CC[C@@H]4[C@@]5(C)CC[C@@H](O)C(C)(C)[C@@H]5CC[C@]43C)C2C1` (stereo partly drawn) [Compound 3, 3-epi-oleanolic acid], the IC50 in series [1] (setting [8]) worked out at 205 ± 3 µM; in series [3], 179 ± 6 µM; in series [2] (vero cells, MTT), 58 ± 5.2 µM; in series [7], 30.3 ± 2.6 µM; in series [4], 29.8 ± 0.3 µM; in series [5] it was 36.54 ± 0.02 µM. Besides, the IC50 in series [6] is 22.5 µg/mL. Further, the “Interaction with the cytotoxic effect of oleanonic acid (2), in words” value (shortened to “Interaction with the cytotoxic effect”) in series [6] is given as “markedly antagonized”. Besides, the “∑FIC 1:1” value in series [6] is 5.2 ^c. The “∑FIC 1:3” value in series [6] is reported as 9.8 ^c. For the same molecule, the “∑FIC 3:1” value in series [6] was 5.8 ^c.
For `CC(C)C12CCC3(CCC4(C)C(CCC5C6(C)CCC(=O)C(C)(C)C6CCC54C)C3O1)CO2` (centres unmarked) [Compound 5, ekeberin A], the IC50 in series [1] (setting [8]) is 182 ± 6 µM; in series [3], above 219 µM; in series [2] (vero cells, MTT), above 219 µM; in series [7] it was 163 ± 4.3 µM; in series [4], above 219 µM; in series [6], above 100 µg/mL. Also, in series [6], the “Interaction with the cytotoxic effect” value is reported as “antagonized by high concentrations of ekeberin A (5), but at lower relative concentrations 5 enhanced the toxicity of 2”. Also, the “∑FIC 1:1” value in series [6] is <1.4 ^c. The “∑FIC 1:3” value in series [6] is listed as <4 ^c. The “∑FIC 3:1” value in series [6] is given as <1.3 ^c.
Consider `CC(=CCCC=C(C)CCC=C(C)CCC(O)C(C)(O)CO)CCC=C(C)CCC(O)C(C)(C)O` (centres unmarked) [Compound 6, 2-hydroxymethyl-2,3,22,23-tetrahydroxy-6,10,15,19,23-pentamethyl-6,10,14,18-tetracosatetraene], for which the IC50 in series [1] (setting [8]) was 27.1 ± 0.4 µM; in series [3], 66.9 ± 0.6 µM; in series [2] (vero cells, MTT) it was 35.7 ± 2.1 µM; in series [7] it was 30.2 ± 1.3 µM; in series [4], 38.4 ± 0.8 µM; in series [5], 36.69 ± 0.04 µM. In series [6], the IC50 is 13.6 µg/mL. The “Interaction with the cytotoxic effect” value in series [6] is “weak antagonistic effects”. The “∑FIC 1:1” value in series [6] was 2.2 ^c. Also, in series [6], the “∑FIC 1:3” value is 2.2 ^c. In series [6], the “∑FIC 3:1” value is 2.3 ^c.
Consider `CC(=CCCC=C(C)CCC=C(C)CCC(O)C(C)(C)O)CCC=C(C)CCC(O)C(C)(C)O` (centres unmarked) [Compound 7, 2,3,22,23-tetrahydroxy-2,6,10,15,19,23-hexamethyl-6,10,14,18-tetracosatetraene], for which the IC50 was 56.1 ± 0.4 µM in series [1] (setting [8]); 64.3 ± 1 µM in series [3]; 24.7 ± 1.8 µM in series [2] (vero cells, MTT); 22.5 ± 3.2 µM in series [7]; 35.5 ± 3.1 µM in series [4]; above 209 µM in series [5]. The IC50 in series [6] turned out to be 11 µg/mL. In series [6], the “Interaction with the cytotoxic effect” value is “weak antagonistic effects”. Moreover, in series [6], the “∑FIC 1:1” value was 1.9 ^c. The “∑FIC 1:3” value in series [6] is 2 ^c. For the same molecule, the “∑FIC 3:1” value in series [6] is 2.2 ^c.
Take `COC(=O)C[C@H]1C(C)(C)[C@H](O)[C@@H]2CC3=C4CC(=O)O[C@@H](c5ccoc5)[C@]4(C)CC[C@@H]3[C@@]1(C)C2=O` [Compound 8, proceranolide]: the IC50 in series [1] (setting [8]) is 84.7 ± 0.8 µM; in series [3], 150 ± 3 µM; in series [2] (vero cells, MTT), above 213 µM; in series [7], above 213 µM; in series [4], above 213 µM.
With `O=c1c(O[C@@H]2O[C@H](CO)[C@@H](O)[C@H](O)[C@H]2O)c(-c2ccc(O)cc2)oc2cc(O)cc(O)c12` [Compound 9, kaempferol-3-O-β-D-glucopyranoside], the IC50 in series [1] (setting [8]) is 97.1 ± 1 µM; in series [3] it was 105.8 ± 0.5 µM; in series [2] (vero cells, MTT), above 223 µM; in series [7], above 223 µM; in series [4], above 223 µM; in series [5], above 223 µM.
For the molecule `O=c1c(O[C@@H]2O[C@H](CO)[C@@H](O)[C@H](O)[C@H]2O)c(-c2ccc(O)c(O)c2)oc2cc(O)cc(O)c12` [Compound 10, quercetin-3-O-β-D-glucopyranoside], the IC50 in series [1] (setting [8]) was 42.9 ± 0.3 µM; in series [3], 105.8 ± 1 µM; in series [2] (vero cells, MTT), above 216 µM; in series [7], above 216 µM; in series [4] it was above 216 µM; in series [5], above 216 µM.
